According to patent US20260042762A1 (Kymera Therapeutics, Inc., priority 2018, published 2026):
Where a name gives a salt, the structure may show the parent alone. Read-outs that look alike come from different tables or passages of the source.

Legend:
[1] = target: T1, MerTK (Mus musculus, UniProt Q60805); assay: MerTK degradation in RAW264 cells (Western blot); assay type: cell-based; conditions: RAW264.7, 0.001-1 μM, 4 hour-incubation at 37° C., read-out: RAW264 Max % MerTK Degradation
T1 construct: endogenous in cells; host or cells: RAW264 cells
T1 sequence (Q60805 19-994): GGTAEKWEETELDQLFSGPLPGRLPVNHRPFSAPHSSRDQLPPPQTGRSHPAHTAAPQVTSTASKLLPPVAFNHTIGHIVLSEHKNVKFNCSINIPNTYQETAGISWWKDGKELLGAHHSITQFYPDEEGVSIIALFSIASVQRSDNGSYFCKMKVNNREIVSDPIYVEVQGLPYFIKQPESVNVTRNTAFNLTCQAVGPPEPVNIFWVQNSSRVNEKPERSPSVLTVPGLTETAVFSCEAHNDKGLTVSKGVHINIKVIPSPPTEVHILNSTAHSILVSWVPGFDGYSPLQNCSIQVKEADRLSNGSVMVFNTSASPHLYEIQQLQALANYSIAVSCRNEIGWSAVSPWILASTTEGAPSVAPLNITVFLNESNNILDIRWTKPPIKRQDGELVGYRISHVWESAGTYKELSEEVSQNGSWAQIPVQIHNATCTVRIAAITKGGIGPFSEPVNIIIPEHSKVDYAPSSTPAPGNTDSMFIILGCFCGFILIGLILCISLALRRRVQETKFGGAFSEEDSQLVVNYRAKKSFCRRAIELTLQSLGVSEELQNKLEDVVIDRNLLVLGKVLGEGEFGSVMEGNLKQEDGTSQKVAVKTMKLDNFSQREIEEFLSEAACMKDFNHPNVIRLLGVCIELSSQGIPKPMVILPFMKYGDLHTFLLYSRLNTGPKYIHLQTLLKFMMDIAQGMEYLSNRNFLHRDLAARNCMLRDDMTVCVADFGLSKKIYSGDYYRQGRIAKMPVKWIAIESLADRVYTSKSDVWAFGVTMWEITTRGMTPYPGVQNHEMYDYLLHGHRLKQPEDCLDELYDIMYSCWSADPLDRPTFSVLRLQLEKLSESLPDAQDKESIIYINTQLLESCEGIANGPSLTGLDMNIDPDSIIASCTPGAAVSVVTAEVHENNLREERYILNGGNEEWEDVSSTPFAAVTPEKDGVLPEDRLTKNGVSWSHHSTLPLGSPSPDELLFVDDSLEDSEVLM
Protocol: Compounds were reconstituted in DMSO to make 10 mM stock solutions. RAW264 cells were maintained in DMEM medium containing 10% FBS. Cells were seeded into 6-well plates with 2×10^6 cells per well. 2 μL of diluted compounds were added to cells to the final concentration of 0.001-1 μM. After a 4 hour-incubation at 37° C., cells were washed with DPBS (1×) once. Then RIPA lysis buffer with Halt Protease and Phosphatase Inhibitor Cocktail was added directly to the cells and cells were then incubated on ice for 10 min, then lysate was harvested into 1.5 mL Eppendorf tubes and centrifuged at 14,000 rpm for 10 min at 4° C. and the supernatants were collected for Western blots.
The protein concentration of cell lysates was quantified with Pierce™ BCA Protein Assay Kit. […] BCA working reagents were prepared by mixing BCA reagent A with reagent B in 50: 1 ratio. 200 μL of the BCA working reagents were added to 25 μL of BCA standard or cell lysates in microplate, and mixed thoroughly on a plate shaker for 30 seconds. After incubation at 37° C. for 30 min, the absorbance of samples at 562 nm were measured with EnVision Plate Reader.
Protein lysates were prepared in NuPAGE™ LDS sample buffer and NuPAGE™ sample reducing agent, and incubated at 95° C. for 5 min. […] The proteins were transferred to low fluorescence PVDF membranes using the Trans-Blot Turbo Transfer System. Membranes were then blocked in Odyssey blocking buffer at RT for 1 h followed by primary incubation at 4° C. overnight. The primary antibodies were MerTK goat polyclonal antibody and actin mouse monoclonal antibody. Membranes were washed three times with TBST (1×), and then incubated with IR Dye 800 CW Donkey anti-goat and IR Dye 700 CW Goat anti-mouse secondary antibodies in 1:10,000 dilution at RT for 1 h. The Western blot images were obtained using Odyssey Imaging System.

[2] = target: T2, MerTK (Homo sapiens, UniProt Q12866); assay: MerTk degradation in Jurkat cells (Western blot); assay type: cell-based; conditions: 0.001-1 μM, 4 hour-incubation at 37° C., read-out: Jurkat Max % MerTK Degradation
T2 construct: endogenous in cells; host or cells: Jurkat cells
T2 sequence (Q12866 21-999): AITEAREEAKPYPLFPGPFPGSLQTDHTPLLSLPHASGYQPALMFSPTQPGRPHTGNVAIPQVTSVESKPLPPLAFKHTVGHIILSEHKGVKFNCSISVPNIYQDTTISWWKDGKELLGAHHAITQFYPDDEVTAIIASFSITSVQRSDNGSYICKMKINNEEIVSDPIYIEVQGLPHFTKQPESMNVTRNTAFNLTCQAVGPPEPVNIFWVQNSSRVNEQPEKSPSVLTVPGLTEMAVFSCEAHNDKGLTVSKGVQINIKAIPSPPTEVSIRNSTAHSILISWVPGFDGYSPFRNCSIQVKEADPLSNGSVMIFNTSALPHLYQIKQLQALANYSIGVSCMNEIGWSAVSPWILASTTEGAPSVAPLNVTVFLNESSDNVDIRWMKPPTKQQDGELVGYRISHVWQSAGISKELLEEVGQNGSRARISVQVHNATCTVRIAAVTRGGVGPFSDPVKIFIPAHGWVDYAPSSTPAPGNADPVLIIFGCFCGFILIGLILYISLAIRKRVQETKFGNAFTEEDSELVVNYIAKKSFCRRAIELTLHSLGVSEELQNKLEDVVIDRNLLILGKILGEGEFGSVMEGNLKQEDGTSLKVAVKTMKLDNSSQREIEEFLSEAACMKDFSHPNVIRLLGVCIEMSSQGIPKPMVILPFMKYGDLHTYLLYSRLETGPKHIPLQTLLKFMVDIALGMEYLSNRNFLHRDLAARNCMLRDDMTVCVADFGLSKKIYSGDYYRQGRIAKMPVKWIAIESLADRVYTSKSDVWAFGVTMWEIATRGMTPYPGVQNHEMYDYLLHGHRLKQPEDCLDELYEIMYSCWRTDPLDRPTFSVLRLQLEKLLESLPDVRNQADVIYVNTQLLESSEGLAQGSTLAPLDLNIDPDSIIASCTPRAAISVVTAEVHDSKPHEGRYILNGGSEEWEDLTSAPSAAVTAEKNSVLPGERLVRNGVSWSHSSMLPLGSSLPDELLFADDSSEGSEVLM
Summary of the method: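 MerTK degradation was read by near-infrared Western blot, normalized to actin, in BCA-quantified lysates of Jurkat cells exposed to 0.001-1 μM compound for 4 h at 37 °C.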

`CCCCNc1ncc2c(-c3ccc(CN4CCN(CCOCCOCCOCCOCCNc5cccc6c5n(C)c(=O)n6C5CCC(=O)NC5=O)CC4)cc3)nn([C@H]3CC[C@H](O)CC3)c2n1` (stereo partly drawn) [I-37, trans-3-(4-[15-[4-([4-[6-(butylamino)-1-[4-hydroxycyclohexyl]-1H-pyrazolo[3,4-d]pyrimidin-3-yl]phenyl]methyl)piperazin-1-yl]-4,7,10,13-tetraoxa-1-azapentadecan-1-yl]-3-methyl-2-oxo-2,3-dihydro-1H-1,3-benzodiazol-1-yl)piperidine-2,6-dione] was tested, and the Dmax [1] was over 50% and the Dmax ([2]; Jurkat, 4 h) was over 50%.

`CCCCNc1ncc2c(-c3ccc(CNCCCOCCCOCCCc4cccc5c4n(C)c(=O)n5C4CCC(=O)NC4=O)cc3)cn([C@H]3CC[C@H](O)CC3)c2n1` (stereo partly drawn) [I-6, Trans-3-[4-[3-(3-[3-[([4-[2-(butylamino)-7-[4-hydroxycyclohexyl]-7H-pyrrolo[2,3-d]pyrimidin-5-yl]phenyl]methyl)amino]propoxy]propoxy)propyl]-3-methyl-2-oxo-2,3-dihydro-1H-1,3-benzodiazol-1-yl]piperidine-2,6-dione] was tested, and the Dmax [1] was over 50% and the Dmax [2] was over 50%.

With `Cc1ccc(CNc2ncc3c(-c4ccc(CN5CCN(CCOCCOCCOCCOCCNc6cccc7c6C(=O)N(C6CCC(=O)NC6=O)C7=O)CC5)cc4)cn([C@H]4CC[C@H](O)CC4)c3n2)cc1` (stereo partly drawn) [I-26, 2-(2,6-Dioxopiperidin-3-yl)-4-[15-(4-[[4-(2-[[(4-methylphenyl)methyl]amino]-7-[trans-4-hydroxycyclohexyl]-7H-pyrrolo[2,3-d]pyrimidin-5-yl)phenyl]methyl]piperazin-1-yl)-4,7,10,13-tetraoxa-1-azapentadecan-1-yl]-2,3-dihydro-1H-isoindole-1,3-dione formate] the Dmax [1] was over 50% and the Dmax ([2]; Jurkat, 4 h) was over 50%.

Work on `CCCCNc1ncc2c(-c3ccc(S(=O)(=O)N4CCN(C(=O)CCCCCCCCCCNC(=O)COc5cccc6c5C(=O)N(C5CCC(=O)NC5=O)C6=O)CC4)cc3)nn([C@H]3CC[C@H](O)CC3)c2n1` (stereo partly drawn) [I-28, N-(11-(4-((4-(6-(Butylamino)-1-(trans-4-hydroxycyclohexyl)-1H-pyrazolo[3,4-d]pyrimidin-3-yl)phenyl)sulfonyl)piperazin-1-yl)-11-oxoundecyl)-2-((2-(2,6-dioxopiperidin-3-yl)-1,3-dioxoisoindolin-4-yl)oxy)acetamide] yielded a Dmax [1] of over 50% and a Dmax ([2]; Jurkat, 4 h) of over 50%.

For `CCCCNc1ncc(-c2ccc(CN3CCN(CCOCCOCCOCCOCCNc4cccc5c4C(=O)N(C4CCC(=O)NC4=O)C5=O)CC3)cn2)c(N[C@H]2CC[C@H](O)CC2)n1` (stereo partly drawn) [I-25, 4-[15-[4-([6-[2-(Butylamino)-4-[[trans-4-hydroxycyclohexyl]amino]pyrimidin-5-yl]pyridin-3-yl]methyl)piperazin-1-yl]-4,7,10,13-tetraoxa-1-azapentadecan-1-yl]-2-(2,6-dioxopiperidin-3-yl)-2,3-dihydro-1H-isoindole-1,3-dione], the Dmax [1] was over 50% and the Dmax ([2]; Jurkat, 4 h) was over 50%.

`CCCCNc1ncc2c(-c3ccc(S(=O)(=O)N4CCN(CCOCCOCCOCCOCCCc5ccc6c(c5)n(C)c(=O)n6C5CCC(=O)NC5=O)CC4)cc3)cn([C@H]3CC[C@H](O)CC3)c2n1` (stereo partly drawn) [I-12, 3-(5-(1-(4-(4-(2-(Butylamino)-7-(trans-4-hydroxycyclohexyl)-7H-pyrrolo [2,3-d]pyrimidin-5-yl)phenylsulfonyl)piperazin-1-yl)-3,6,9,12-tetraoxapentadecan-15-yl)-3-methyl-2-oxo-2,3-dihydrobenzo[d]imidazol-1-yl)piperidine-2,6-dione] was tested, and the Dmax [1] was over 50% and the Dmax ([2]; Jurkat, 4 h) was over 50%.

`Cc1ccc(CNc2ncc(-c3ccc(CN4CCN(CCOCCOCCOCCOCCNc5cccc6c5C(=O)N(C5CCC(=O)NC5=O)C6=O)CC4)cn3)c(N[C@H]3CC[C@H](O)CC3)n2)cc1` (stereo partly drawn) [I-21, 2-(2,6-Dioxopiperidin-3-yl)-4-[15-(4-[[6-(2-[[(4-methylphenyl)methyl]amino]-4-[[trans-4-hydroxycyclohexyl]amino]pyrimidin-5-yl)pyridin-3-yl]methyl]piperazin-1-yl)-4,7,10,13-tetraoxa-1-azapentadecan-1-yl]-2,3-dihydro-1H-isoindole-1,3-dione] showed a Dmax [1] of 20 to 50% and a Dmax ([2]; Jurkat, 4 h) of 20 to 50%.

`CCCCNc1ncc2c(-c3ccc(S(=O)(=O)N4CCN(C(=O)NCCCOCCCOCCCNc5cccc6c5C(=O)N(C5CCC(=O)NC5=O)C6=O)CC4)cc3)nn([C@H]3CC[C@H](O)CC3)c2n1` (stereo partly drawn) [I-19, 4-((4-(6-(Butylamino)-1-(trans-4-hydroxycyclohexyl)-1H-pyrazolo[3,4-d]pyrimidin-3-yl)phenyl)sulfonyl)-N-(3-(3-(3-((2-(2,6-dioxopiperidin-3-yl)-1,3-dioxoisoindolin-4-yl)amino)propoxy)propoxy)propyl)piperazine-1-carboxamide] gave a Dmax [1] of over 50% and a Dmax ([2]; Jurkat, 4 h) of over 50%.

In the case of `CCCCNc1ncc2c(-c3ccc(CN4CCN(CCOCCOCCOCCOCCCc5ccc6c(c5)n(C)c(=O)n6C5CCC(=O)NC5=O)CC4)cc3)nn([C@H]3CC[C@H](O)CC3)c2n1` (stereo partly drawn) [I-38, trans-3-(5-[1-[4-([4-[6-(butylamino)-1-[4-hydroxycyclohexyl]-1H-pyrazolo[3,4-d]pyrimidin-3-yl]phenyl]methyl)piperazin-1-yl]-3,6,9,12-tetraoxapentadecan-15-yl]-3-methyl-2-oxo-2,3-dihydro-1H-1,3-benzodiazol-1-yl)piperidine-2,6-dione], the Dmax [1] is reported as over 50% and the Dmax ([2]; Jurkat, 4 h) is reported as over 50%.
